Assay results reported in patent publication US8637038B2, “Methods for inhibiting allograft rejection” (Rigel Pharmaceuticals, Inc., priority 2011, dated 2014).

Key:
Assay type in all cases: in vivo, rat
[1] = system: Lew recipients of heterotopic BN heart transplants; test: Five-day heart allograft study: H+E histology, ISHLT rejection classification; settings: HD (Compound I 60 mg/kg BID, Compound III 20 mg/kg BID, Tac 4 mg/kg QD); five days after transplantation
Text: Male Brown Norway (BN) and Lewis (Lew) rats weighing 350 g were purchased from Harlan (Indianapolis, Ind.) and were housed under conventional conditions. All animals were fed standard rat chow and water ad libitum and received humane care in compliance with the Principles of Laboratory Animal Care formulated by the National Society for Medical Research and the Guide for the care and Use of Laboratory Animals published by the National Institutes of Health (National Institutes of Health publication No. 85-23, revised 1985). Allogeneic (BN-to-Lew) and syngeneic (Lew-to-Lew) heterotopic heart transplantations were performed as described previously (Ono et al., J. Thorac. Cardiovasc. Surg. 57:225-229, 1969). In brief, rats were anaesthetized using 2% isoflurane. The donor received an intravenous bolus of 500 I.U. heparin. Cardiac arrest was achieved using 20 ml Bretschneider solution (Custodiol, Dr. F. Koehler Chemie, Bensheim, Germany). […] Heart-beating score was assessed directly after transplantation for each animal from score 0 (no palpable contraction) to 4 (strong and regular contraction). Only animals with beating scores of 4 were included into the study. Compound I and Compound III were provided by Rigel (South San Francisco, Calif.) and Tacrolimus was provided by Astellas (Munich, Germany). All drugs were administrated orally each in two different concentrations: Compound I LD (15 mg/kg BID; n=6) and HD (60 mg/kg BID; n=6); […] Administration of all drugs was performed every day at the same time points. Tacrolimus was applied only once a day (QD) every 24 hours. During administration of Compound I (BID) and Compound III (BID) a 12 hour pause was kept in between each drug application. Lew recipients of heterotopic BN heart transplants were randomly assigned to their group. […] An untreated syngeneic transplant group Lew-Lew was generated as control. Grafts were recovered five days after transplantation and fixed in 4% paraformaldehyde (Science Services, Munich, Germany), dehydrated and embedded in paraffin. […] Waldeck, Carl Roth GmbH, Munster, Germany) and examined by standard light microscopy. The extent of acute cardiac graft rejection in H+E staining was examined by an experienced pathologist according to the 2004 ISHLT working formulation (Stewart et al., J. Heart Lung Transplant. 24:1710-1720, 2005).

[2] = system: Lew recipients of heterotopic BN heart transplants; test: Five-day heart allograft study: ELISPOT (IFN-γ, IL-4, IL-17) of recipient splenocytes; settings: LD groups (Compound I 15 mg/kg BID, Compound III 5 mg/kg BID, Tac 1 mg/kg QD); five days
Procedure: (§1) Compound I and Compound III were provided by Rigel (South San Francisco, Calif.) and Tacrolimus was provided by Astellas (Munich, Germany). All drugs were administrated orally each in two different concentrations: Compound I LD (15 mg/kg BID; n=6) and HD (60 mg/kg BID; n=6); Compound III LD (5 mg/kg BID; n=6) and HD (20 mg/kg BID; n=6); Tac LD (1 mg/kg QD; n=6) and HD (4 mg/kg QD; n=6). Administration of all drugs was performed every day at the same time points. Tacrolimus was applied only once a day (QD) every 24 hours. During administration of Compound I (BID) and Compound III (BID) a 12 hour pause was kept in between each drug application.
(§2) Lew recipients of heterotopic BN heart transplants were randomly assigned to their group. Animals were either left untreated (groups 1 and 2; see Table 1,5-day study) or received their group specific medication (groups 3-8; see Table 1,5-day study) by oral application. An untreated syngeneic transplant group Lew-Lew was generated as control.
Lymphocytes were isolated from freshly harvested spleens. ELISPOT assays with 1×10^7/ml mitomycin-inhibited BN splenocytes and 1×10^6/ml Lew splenocytes were performed according to the manufacturer's protocol (BD Biosciences). 96-well plates were coated with IFN-γ, IL-17, and IL-4 to assess T helper cell (Th)1-, Th17-, and Th2-responses independently. All assays were performed in quadruplicates. Spots were automatically enumerated using an ELISPOT plate reader (CTL, Cincinnati, Ohio) for scanning and analyzing.

[3] = system: Lew recipients of heterotopic BN heart transplants; test: Five-day heart allograft study: donor-specific IgM antibodies by flow cytometry; settings: LD and HD groups; five days; p<0.001
Procedure: as §1, §2
Donor splenocytes were isolated and erythrocytes were lysed using the ACK buffer (Lonza, Walkersville, Md.). Sera from recipient rats were decomplemented and equal amounts of sera and splenocyte suspensions (5×10^6 cells/ml) were incubated for 30 minutes at room temperature. IgM antibodies were stained by incubation of the cells with a conjugated mouse antibody specific for the Fc-portion of rat IgM (Monoclonal Anti-rat IGM, Clone RTM-32, Sigma) followed by incubation with a 488-conjugated secondary antibody (Invitrogen). Cells were washed with PBS, fixed with 2% paraformaldehyde (Science Services), and analyzed on a FACSCalibur™ system (BD Biosciences). Fluorescence data were expressed as mean fluorescence intensity (MFI) using Flowjo software (Tree Star, Inc., Ashland, Oreg.).

[4] = system: BN-to-Lew heterotopic heart transplantations; test: Graft survival study after 10-day treatment, with combination index; settings: no medication 7±0 days
Text: Male Brown Norway (BN) and Lewis (Lew) rats weighing 350 g were purchased from Harlan (Indianapolis, Ind.) and were housed under conventional conditions. All animals were fed standard rat chow and water ad libitum and received humane care in compliance with the Principles of Laboratory Animal Care formulated by the National Society for Medical Research and the Guide for the care and Use of Laboratory Animals published by the National Institutes of Health (National Institutes of Health publication No. 85-23, revised 1985). Allogeneic (BN-to-Lew) and syngeneic (Lew-to-Lew) heterotopic heart transplantations were performed as described previously (Ono et al., J. Thorac. Cardiovasc. Surg. 57:225-229, 1969). In brief, rats were anaesthetized using 2% isoflurane. The donor received an intravenous bolus of 500 I.U. heparin. Cardiac arrest was achieved using 20 ml Bretschneider solution (Custodiol, Dr. F. Koehler Chemie, Bensheim, Germany). […] Heart-beating score was assessed directly after transplantation for each animal from score 0 (no palpable contraction) to 4 (strong and regular contraction). Only animals with beating scores of 4 were included into the study.
as §1
BN-to-Lew heterotopic heart transplantations were performed. Recipient animals were treated for 10 days according to Table 1 (10 day survival study group) and graft survival was monitored by daily palpation of the beating donor heart through the abdominal wall. Scoring was assessed according to heart-beating score of 0 to 4. The time of rejection was defined as the last day of palpable cardiac contractions and graft rejection was confirmed by laparotomy.
The median-effect principle of Chou (in Synergism and Antagonism in Chemotherapy, Chou and Rideout, eds, pp. 61-102, Academic Press, 1991) is based on the premise that the effect of each agent is related to its dose and, therefore, can be calculated using the following equation: (fa/fu)=(D/Dm)m, where fa and fu represent the fractions of the system that are affected (% inhibition or rather days of survival beyond controls) and unaffected (1−fa), respectively, by the drug at dose D. Full protection (fa=1) is defined as at least a 28-day survival of allografts. Dm is the dose required for 50% inhibition (ED50), the median effect (m) is a coefficient that describes the sigmoidicy of the dose-effect curve. The interaction between two drugs is assessed by the combination index (CI) equation for the doses to achieve x % inhibition:
[formula] for the mutually nonexclusive case, where each drug has a different mode of action. A computer software program was used to determine the dose-effect parameters (Dm, m, and r), and the CI values (CalcuSyn, Biosoft, Cambridge, United Kingdom).
Graft survival was monitored by daily palpation of the beating donor heart through the abdominal wall and treatment of animals was stopped after 10 days.

C=CC[C@@H]1/C=C(\C)C[C@H](C)C[C@H](OC)[C@H]2O[C@@](O)(C(=O)C(=O)N3CCCC[C@H]3C(=O)O[C@H](/C(C)=C/[C@@H]3CC[C@@H](O)[C@H](OC)C3)[C@H](C)[C@@H](O)CC1=O)[C@H](C)C[C@@H]2OC [Tac, Tacrolimus, reference compound]
hearts with ISHLT score of 1 [1]: 67%
hearts with ISHLT score of 2 [1]: 33%
IFN-γ spot frequency (ELISPOT) compared to no medication group [2]: no significant reduction
donor-specific IgM antibodies (DSA) vs. no medication [3]: significant suppression
graft survival, mean ([4]; HD (Compound I 60 mg/kg BID, Compound III 20 mg/kg BID, Tac 4 mg/kg QD) for 10 days): 20 ± 3 days
graft survival, mean ([4]; LD (Compound I 15 mg/kg BID, Compound III 5 mg/kg BID, Tac 1 mg/kg QD) for 10 days): 13 ± 2 days
